Laboratory results published in patent publication US20240398806A1, “Compositions For and Methods of Treating and/or Preventing Pain” (Duke University, priority 2021, published 2024).
Read-outs that look alike come from different tables or passages of the source.

Key:
NTSR1 [1] = molecular target: T1, NTSR1 (Homo sapiens, UniProt P30989); assay: [3H]SBI-553 saturation binding to NTSR1-containing HEK293T cell membranes; design: expressed in transfected cells; host or cells: HEK293T cell membranes; conditions: by the named competitor
T1 sequence (P30989 whole entry): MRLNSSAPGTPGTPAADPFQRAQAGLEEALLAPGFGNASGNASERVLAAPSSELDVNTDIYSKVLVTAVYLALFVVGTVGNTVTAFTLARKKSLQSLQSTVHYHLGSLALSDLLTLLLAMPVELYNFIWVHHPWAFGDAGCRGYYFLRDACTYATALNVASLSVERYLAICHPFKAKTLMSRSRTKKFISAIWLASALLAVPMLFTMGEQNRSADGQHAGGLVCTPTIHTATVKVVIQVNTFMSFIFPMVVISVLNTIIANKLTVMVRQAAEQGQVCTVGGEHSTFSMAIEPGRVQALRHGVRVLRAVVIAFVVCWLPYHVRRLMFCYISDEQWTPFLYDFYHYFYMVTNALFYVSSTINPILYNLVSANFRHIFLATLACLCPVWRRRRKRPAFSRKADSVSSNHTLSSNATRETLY

[2] = Pharmacokinetics in monkey (IV and PO); type: in vivo; conditions: for AUC: monkey; for MRT last: read-out: MRT0-last
NTSR2 = molecular target: T2, NTSR2 (Homo sapiens, UniProt O95665); assay: Cellular assay of β-arrestin-2 translocation in cells expressing NTSR2; type: cell-based
T2 construct: expressed in transfected cells; host or cells: HEK293 cells
T2 sequence (O95665 whole entry, species assumed): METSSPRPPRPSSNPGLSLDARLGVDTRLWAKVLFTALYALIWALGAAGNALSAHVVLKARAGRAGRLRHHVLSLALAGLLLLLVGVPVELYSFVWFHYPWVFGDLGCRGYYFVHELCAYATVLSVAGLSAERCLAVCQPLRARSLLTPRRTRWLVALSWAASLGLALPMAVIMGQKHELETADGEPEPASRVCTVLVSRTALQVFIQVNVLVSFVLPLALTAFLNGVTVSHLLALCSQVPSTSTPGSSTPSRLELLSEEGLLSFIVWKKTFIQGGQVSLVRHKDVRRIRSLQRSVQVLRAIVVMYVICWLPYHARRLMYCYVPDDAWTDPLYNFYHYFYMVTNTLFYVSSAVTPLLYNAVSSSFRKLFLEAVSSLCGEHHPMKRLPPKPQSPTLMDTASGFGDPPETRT
Protocol: (§1) First, using cellular assays, whether IND candidates such as SBI-810 are similar or better than SBI-553 as β-arrestin biased agonist at NTSR1. is assessed. The chemical entities used in this work were synthesized and validated. However, routine validation of the profile of these compounds is performed routinely using both cellular and in vivo assays. For example, HEK293 cells that express either the NTSR1 or NTSR2 are used to assess the functional profile of the various chemical probes. In addition, a series of genetically engineered mouse lines are used to provide an in vivo validation of novel chemical entities for their abilities to module behaviors in these animals.
(§2) Fourth, cellular assays are used to establish that IND ready analogs like SBI-810 are still selective for the NTSR1 rather than NTSR2. The specificity of the lead compounds toward NTSR1. NTSR2. and β-arrestin-2 are tested in respective cellular assays. More specifically, cells expressing either NTSR1 or NTSR2 are used to assess the function of various compound. […] This translocation is not observed in cells expressing NTSR2.
(§3) Fourth, genetically engineered mice are used to assess the effects and mechanisms of novel ligands. The specificity of the lead compounds toward NTSR1, NTSR2, and β-arrestin-2 dependent signaling is examined. […]

[3] = Pain models with systemic (IP or oral) administration; type: in vivo, mice and rats
NTSR1 [4] = molecular target: T1, NTSR1; assay: Cellular assay of β-arrestin-2 translocation in cells expressing NTSR1; type: cell-based; design: expressed in transfected cells; host or cells: HEK293T cell membranes
Protocol: as §1, §2, §3

lamina IIo neurons = test system: lamina IIo neurons; design: dose or concentration left out as unconfirmed; conditions: slices of PTX-treated mice
NMDAR = type: cell-based; conditions: Arrb2-KO mice; NMDA 50 mM as printed
Protocol: In FIG. 9B-FIG. 9D. *p<0.05 as determined by a two-way or one-way ANOVA.
Spinal cord NMDAR plays a critical role in driving inflammatory and neuropathic pain (Woolf C J, et al. (2000) Science. 288(5472):1765-1769). Using spinal cord slice preparations, NMDA (50 mM) induced inward currents in spinal cord out lamina II (IIo) neurons were recorded in WT and Arrb2-KO mice. […] Similarly, duration of intrathecal (i.t.) NMDA-induced spontaneous pain was also potentiated in the KO mice (FIG. 9C).

## COc1cccc(OC)c1-c1cc(C(=O)NC2(C(=O)O)C3CC4CC(C3)CC2C4)nn1-c1ccc(C(=O)N(C)CCCN(C)C)cc1C(C)C (stereo not drawn) [SR142948A, reference compound]
NTSR1 [1]
  Displacement of [3H]SBI-553 from NTSR1: not displaced

## COc1ccccc1C1CCN(c2nc(C3(C)CC3)nc3ccc(N(C)CCO)cc23)CC1 [SBI-810]
[2]; Monkey, IV 5 mg/kg
  Co: 4702 ng/mL
  T2/2: 6.54 h
[2]; Monkey, PO 20 mg/kg
  CI: 5.2 mL/min/kg
  Co: 314 ng/mL
[2]; compared with SBI-553
  Oral availability: enhanced oral availability
[2]; following i.v. and p.o. dosing
  Levels in plasma: good levels in plasma
[2]; plasma, iv, 5 mg/kg, Monkey, IV 5 mg/kg, read-out: AUCo-inf
  AUC: 4340 ng·h/mL
[2]; plasma, iv, 5 mg/kg, Monkey, IV 5 mg/kg, read-out: AUCo-last
  AUC: 4210 ng·h/mL
[2]; plasma, po, 20 mg/kg, Monkey, PO 20 mg/kg, read-out: AUCo-inf
  AUC: 2230 ng·h/mL
[2]; plasma, po, 20 mg/kg, Monkey, PO 20 mg/kg, read-out: AUCo-last
  AUC: 2120 ng·h/mL
[2]; plasma, Monkey, IV 5 mg/kg
  clearance: 19.2 mL/min/kg
  MRT last: 3.4 h
[2]; plasma, Monkey, IV 5 mg/kg, read-out: Vdss
  Vd: 5 L/kg
[2]; plasma, Monkey, PO 20 mg/kg
  half-life: 4 h
  MRT last: 8 h
NTSR2
  Translocation of β-arrestin-2 to intracellular compartments: not observed
[3]
  Pain reduction compared with SBI-553: more effective in reducing pain than SBI-553
NTSR1 [4]
  Translocation of β-arrestin-2 to intracellular compartments: demonstrate translocation of β-arrestin-2

## CN1CC[C@]23c4c5ccc(O)c4O[C@H]2[C@@H](O)C=C[C@H]3[C@H]1C5 [morphine, reference compound]
Lamina IIo neurons
  Excitatory synaptic transmission (sEPSCs) in lamina IIo neurons: did not produce significant inhibition

## C[C@@H](CN1CCC(Cc2ccccc2)CC1)[C@@H](O)c1ccc(O)cc1 [Ro25]
NMDAR
  Block of the increase in NMDA current amplitude caused by Arrb2 deficiency: dose-dependently blocked
